Measurements as given in patent US8815569B2, “Methods for preserving and/or storing cells having a nitrilase or nitrile hydratase activity” (priority 2003, dated 2014).

Target: T1, E. coli-expressed nitrilase (Alcaligenes faecalis, UniProt P20960)
T1 construct: expressed in transfected cells; host or cells: Escherichia coli TG10 (pDHE1650 pAgro4 pHSG575), whole-cell suspension
Test: Nitrilase activity test of the cell suspension after storage with aldehyde
Type: cell-based, Escherichia coli
Procedure: The Escherichia coli strain (TG10 pDHE1650 pAgro4 pHSG575) was fermented in a 20 l bioreactor. The reactor, containing a 10 l working volume, was inoculated with 200 ml of preliminary culture from shaker flasks. The preliminary culture medium corresponds to the main culture medium.
The fermentation is carried out at a temperature of 37° C. The gassing is regulated between 8-30 l/min, while the rotation speed of the stirrer is regulated at […], in order to maintain a pO2 of not less than 20%. After a fermentation period of 1 h, the culture is induced with IPTG (0.15 mM). 18.5 g of rhamnose feed solution are then added. After the initially introduced quantity of glycerol has been consumed, glycerol is then fed in continuously. After a fermentation period of 44 h, cell suspensions of 50 g DBM/l and 50 to 60 ku/l are obtained. The cells are cooled down to 4° C.
50 μl of cell suspension are pipetted into 880 μl of sodium potassium phosphate buffer (10 mM) and the whole is equilibrated at 30° C. The reaction is started by adding 20 μl of methanolic mandelonitrile solution (12%). After 10 min, the enzyme reaction is stopped by adding 50 μl of 1M HC. The cell mass is centrifuged off and the concentration of mandelic acid in the supernatant is measured by means of HPLC (ODS Hypersil 100*2.0 mm, mobile phase: 75% H3PO4 (14.8 mM)/25% methanol; flow rate: 0.5 ml/min; injection volume: 2 μl; column temperature: 40° C.; detection: 210 nm; mandelic acid retention time: 0.9 min).
(§1) 14 h after the end of the fermentation, the cell suspension was adjusted to a pH of 6.0, 6.6 or 7.2 with NaOH or H2SO4 and then treated with benzaldehyde. The samples were stored at 4° C. or 22° C. Enzyme activity was determined at 0.6, 3.6 and 6.6 days after the end of the fermentation.
as §1, with “6.0, 6.6.” for “6.0, 6.6”, “with 2-chlorobenzaldehyde.” for “with benzaldehyde.”, “C. The enzyme” for “C. Enzyme”

[1] = storage at 4° C., pH 6.0, 1 mM aldehyde, storage period 0.6 d
[2] = storage at 4° C., pH 6.0, 1 mM aldehyde, storage period 3.6 d
[3] = storage at 4° C., pH 6.0, 1 mM aldehyde, storage period 6.6 d
[4] = storage at 4° C., pH 6.0, 5 mM aldehyde, storage period 0.6 d
[5] = storage at 4° C., pH 6.0, 5 mM aldehyde, storage period 3.6 d
[6] = storage at 4° C., pH 6.0, 5 mM aldehyde, storage period 6.6 d
[7] = storage at 4° C., pH 6.0, 10 mM aldehyde, storage period 0.6 d
[8] = storage at 4° C., pH 6.0, 10 mM aldehyde, storage period 3.6 d
[9] = storage at 4° C., pH 6.0, 10 mM aldehyde, storage period 6.6 d
[10] = storage at 4° C., pH 6.6, 1 mM aldehyde, storage period 0.6 d
[11] = storage at 4° C., pH 6.6, 1 mM aldehyde, storage period 3.6 d
[12] = storage at 4° C., pH 6.6, 1 mM aldehyde, storage period 6.6 d
[13] = storage at 4° C., pH 6.6, 5 mM aldehyde, storage period 0.6 d
[14] = storage at 4° C., pH 6.6, 5 mM aldehyde, storage period 3.6 d
[15] = storage at 4° C., pH 6.6, 5 mM aldehyde, storage period 6.6 d
[16] = storage at 4° C., pH 6.6, 10 mM aldehyde, storage period 0.6 d
[17] = storage at 4° C., pH 6.6, 10 mM aldehyde, storage period 3.6 d
[18] = storage at 4° C., pH 6.6, 10 mM aldehyde, storage period 6.6 d
[19] = storage at 4° C., pH 7.2, 1 mM aldehyde, storage period 0.6 d
[20] = storage at 4° C., pH 7.2, 1 mM aldehyde, storage period 3.6 d
[21] = storage at 4° C., pH 7.2, 1 mM aldehyde, storage period 6.6 d
[22] = storage at 4° C., pH 7.2, 5 mM aldehyde, storage period 0.6 d
[23] = storage at 4° C., pH 7.2, 5 mM aldehyde, storage period 3.6 d
[24] = storage at 4° C., pH 7.2, 5 mM aldehyde, storage period 6.6 d
[25] = storage at 4° C., pH 7.2, 10 mM aldehyde, storage period 0.6 d
[26] = storage at 4° C., pH 7.2, 10 mM aldehyde, storage period 3.6 d
[27] = storage at 4° C., pH 7.2, 10 mM aldehyde, storage period 6.6 d
[28] = storage at 22° C., pH 6.0, 1 mM aldehyde, storage period 0.6 d
[29] = storage at 22° C., pH 6.0, 1 mM aldehyde, storage period 3.6 d
[30] = storage at 22° C., pH 6.0, 1 mM aldehyde, storage period 6.6 d
[31] = storage at 22° C., pH 6.0, 5 mM aldehyde, storage period 0.6 d
[32] = storage at 22° C., pH 6.0, 5 mM aldehyde, storage period 3.6 d
[33] = storage at 22° C., pH 6.0, 5 mM aldehyde, storage period 6.6 d
[34] = storage at 22° C., pH 6.0, 10 mM aldehyde, storage period 0.6 d
[35] = storage at 22° C., pH 6.0, 10 mM aldehyde, storage period 3.6 d
[36] = storage at 22° C., pH 6.0, 10 mM aldehyde, storage period 6.6 d
[37] = storage at 22° C., pH 6.6, 1 mM aldehyde, storage period 0.6 d
[38] = storage at 22° C., pH 6.6, 1 mM aldehyde, storage period 3.6 d
[39] = storage at 22° C., pH 6.6, 1 mM aldehyde, storage period 6.6 d
[40] = storage at 22° C., pH 6.6, 5 mM aldehyde, storage period 0.6 d
[41] = storage at 22° C., pH 6.6, 5 mM aldehyde, storage period 3.6 d
[42] = storage at 22° C., pH 6.6, 5 mM aldehyde, storage period 6.6 d
[43] = storage at 22° C., pH 6.6, 10 mM aldehyde, storage period 0.6 d
[44] = storage at 22° C., pH 6.6, 10 mM aldehyde, storage period 3.6 d
[45] = storage at 22° C., pH 6.6, 10 mM aldehyde, storage period 6.6 d
[46] = storage at 22° C., pH 7.2, 1 mM aldehyde, storage period 0.6 d
[47] = storage at 22° C., pH 7.2, 1 mM aldehyde, storage period 3.6 d
[48] = storage at 22° C., pH 7.2, 1 mM aldehyde, storage period 6.6 d
[49] = storage at 22° C., pH 7.2, 5 mM aldehyde, storage period 0.6 d
[50] = storage at 22° C., pH 7.2, 5 mM aldehyde, storage period 3.6 d
[51] = storage at 22° C., pH 7.2, 5 mM aldehyde, storage period 6.6 d
[52] = storage at 22° C., pH 7.2, 10 mM aldehyde, storage period 0.6 d
[53] = storage at 22° C., pH 7.2, 10 mM aldehyde, storage period 3.6 d
[54] = storage at 22° C., pH 7.2, 10 mM aldehyde, storage period 6.6 d

T1 sequence (P20960 whole entry Q122E/S243P/E312D/I323T/Q324R/P330Q/H331G/T335K/A336I/P338S/V341I/Q343H/T344P): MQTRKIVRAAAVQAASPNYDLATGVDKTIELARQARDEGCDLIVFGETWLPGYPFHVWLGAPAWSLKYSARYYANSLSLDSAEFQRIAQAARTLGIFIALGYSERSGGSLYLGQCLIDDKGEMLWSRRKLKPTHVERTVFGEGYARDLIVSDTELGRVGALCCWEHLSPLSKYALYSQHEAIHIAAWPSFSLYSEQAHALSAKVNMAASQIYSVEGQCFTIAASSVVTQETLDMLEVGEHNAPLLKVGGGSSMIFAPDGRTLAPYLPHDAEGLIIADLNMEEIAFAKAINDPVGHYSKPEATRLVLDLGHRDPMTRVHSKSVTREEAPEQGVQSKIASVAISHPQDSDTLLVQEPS

O=Cc1ccccc1Cl [2-chlorobenzaldehyde]
Activity in kU/l [1]: 52.4 kU/l
Activity in kU/l [2]: 53.5 kU/l
Activity in kU/l [3]: 56.9 kU/l
Activity in kU/l [4]: 52.5 kU/l
Activity in kU/l [5]: 55.6 kU/l
Activity in kU/l [6]: 53.8 kU/l
Activity in kU/l [7]: 53.5 kU/l
Activity in kU/l [8]: 55.7 kU/l
Activity in kU/l [9]: 47.6 kU/l
Activity in kU/l [10]: 48.8 kU/l
Activity in kU/l [11]: 55.1 kU/l
Activity in kU/l [12]: 54.7 kU/l
Activity in kU/l [13]: 50.6 kU/l
Activity in kU/l [14]: 56.3 kU/l
Activity in kU/l [15]: 53.6 kU/l
Activity in kU/l [16]: 47.4 kU/l
Activity in kU/l [17]: 55.0 kU/l
Activity in kU/l [18]: 58.5 kU/l
Activity in kU/l [19]: 51.3 kU/l
Activity in kU/l [20]: 48.3 kU/l
Activity in kU/l [21]: 45.2 kU/l
Activity in kU/l [22]: 53.3 kU/l
Activity in kU/l [23]: 51.2 kU/l
Activity in kU/l [24]: 48.1 kU/l
Activity in kU/l [25]: 48.3 kU/l
Activity in kU/l [26]: 51.0 kU/l
Activity in kU/l [27]: 49.9 kU/l
Activity in kU/l [28]: 52.4 kU/l
Activity in kU/l [29]: 53.8 kU/l
Activity in kU/l [30]: 54.5 kU/l
Activity in kU/l [31]: 52.5 kU/l
Activity in kU/l [32]: 55.0 kU/l
Activity in kU/l [33]: 59.1 kU/l
Activity in kU/l [34]: 53.5 kU/l
Activity in kU/l [35]: 55.7 kU/l
Activity in kU/l [36]: 52.4 kU/l
Activity in kU/l [37]: 48.8 kU/l
Activity in kU/l [38]: 55.0 kU/l
Activity in kU/l [39]: 57.2 kU/l
Activity in kU/l [40]: 50.6 kU/l
Activity in kU/l [41]: 56.7 kU/l
Activity in kU/l [42]: 55.5 kU/l
Activity in kU/l [43]: 47.4 kU/l
Activity in kU/l [44]: 56.2 kU/l
Activity in kU/l [45]: 58.6 kU/l
Activity in kU/l [46]: 51.3 kU/l
Activity in kU/l [47]: 52.8 kU/l
Activity in kU/l [48]: 53.2 kU/l
Activity in kU/l [49]: 53.3 kU/l
Activity in kU/l [50]: 51.4 kU/l
Activity in kU/l [51]: 50.1 kU/l
Activity in kU/l [52]: 48.3 kU/l
Activity in kU/l [53]: 52.9 kU/l
Activity in kU/l [54]: 54.0 kU/l

O=Cc1ccccc1 [benzaldehyde]
Activity in kU/l [1]: 55.1 kU/l
Activity in kU/l [2]: 49.9 kU/l
Activity in kU/l [3]: 48.3 kU/l
Activity in kU/l [4]: 51.8 kU/l
Activity in kU/l [5]: 52.3 kU/l
Activity in kU/l [6]: 53.0 kU/l
Activity in kU/l [7]: 51.3 kU/l
Activity in kU/l [8]: 51.5 kU/l
Activity in kU/l [9]: 50.2 kU/l
Activity in kU/l [10]: 53.2 kU/l
Activity in kU/l [11]: 52.3 kU/l
Activity in kU/l [12]: 52.5 kU/l
Activity in kU/l [13]: 47.1 kU/l
Activity in kU/l [14]: 52.0 kU/l
Activity in kU/l [15]: 55.7 kU/l
Activity in kU/l [16]: 51.3 kU/l
Activity in kU/l [17]: 55.5 kU/l
Activity in kU/l [18]: 51.9 kU/l
Activity in kU/l [19]: 55.8 kU/l
Activity in kU/l [20]: 46.8 kU/l
Activity in kU/l [21]: 47.5 kU/l
Activity in kU/l [22]: 47.1 kU/l
Activity in kU/l [23]: 48.3 kU/l
Activity in kU/l [24]: 50.7 kU/l
Activity in kU/l [25]: 53.8 kU/l
Activity in kU/l [26]: 51.2 kU/l
Activity in kU/l [27]: 49.2 kU/l
Activity in kU/l [28]: 55.1 kU/l
Activity in kU/l [29]: 50.6 kU/l
Activity in kU/l [30]: 51.0 kU/l
Activity in kU/l [31]: 51.8 kU/l
Activity in kU/l [32]: 51.5 kU/l
Activity in kU/l [33]: 54.9 kU/l
Activity in kU/l [34]: 51.3 kU/l
Activity in kU/l [35]: 53.0 kU/l
Activity in kU/l [36]: 49.2 kU/l
Activity in kU/l [37]: 53.2 kU/l
Activity in kU/l [38]: 53.0 kU/l
Activity in kU/l [39]: 53.1 kU/l
Activity in kU/l [40]: 47.1 kU/l
Activity in kU/l [41]: 54.3 kU/l
Activity in kU/l [42]: 58.0 kU/l
Activity in kU/l [43]: 51.3 kU/l
Activity in kU/l [44]: 49.4 kU/l
Activity in kU/l [45]: 55.4 kU/l
Activity in kU/l [46]: 55.8 kU/l
Activity in kU/l [47]: 50.4 kU/l
Activity in kU/l [48]: 48.7 kU/l
Activity in kU/l [49]: 47.1 kU/l
Activity in kU/l [50]: 51.7 kU/l
Activity in kU/l [51]: 52.9 kU/l
Activity in kU/l [52]: 53.8 kU/l
Activity in kU/l [53]: 52.7 kU/l
Activity in kU/l [54]: 51.3 kU/l
